The source made the active and inactive calls. The calls are words filed in the database; no cut-off is given here.
Experiments:
ACHN [1] = experiment: Antiproliferative activity against human ACHN cells at 0.1 uM by SRB assay; type: functional
NUGC-3 [2] = experiment: Antiproliferative activity against human NUGC3 cells at 3 uM by SRB assay; type: functional
NUGC-3 [3] = experiment: Antiproliferative activity against human NUGC3 cells at 0.1 uM by SRB assay; type: functional
NUGC-3 [4] = experiment: Antiproliferative activity against human NUGC3 cells at 1 uM by SRB assay; type: functional
ACHN [5] = experiment: Antiproliferative activity against human ACHN cells at 1 uM by SRB assay; type: functional
[6] = biological target: Rho-related GTP-binding protein RhoB (Homo sapiens) (UniProt P62745); experiment: Transactivation of RhoB in human HeLa cells by luciferase reporter assay; type: cell-based
Rho-related GTP-binding protein RhoB (Homo sapiens), sequence (P62745 whole entry): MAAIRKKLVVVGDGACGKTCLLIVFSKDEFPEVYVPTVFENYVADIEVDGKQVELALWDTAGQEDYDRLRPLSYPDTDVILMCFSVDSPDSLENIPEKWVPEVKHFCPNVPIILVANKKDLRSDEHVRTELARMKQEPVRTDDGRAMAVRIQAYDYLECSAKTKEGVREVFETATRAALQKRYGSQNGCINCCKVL

NCI-H23 [7] = experiment: Antiproliferative activity against human NCI-H23 cells at 0.1 uM by SRB assay; type: functional
HCT-15 [8] = experiment: Antiproliferative activity against human HCT15 cells by SRB assay; type: functional
NCI-H23 [9] = experiment: Antiproliferative activity against human NCI-H23 cells by SRB assay; type: functional
HCT-15 [10] = experiment: Antiproliferative activity against human HCT15 cells at 0.3 uM by SRB assay; type: functional
ACHN [11] = experiment: Antiproliferative activity against human ACHN cells at 3 uM by SRB assay; type: functional
MDA-MB-231 [12] = experiment: Antiproliferative activity against human MDA-MB-231 cells at 0.3 uM by SRB assay; type: functional
NCI-H23 [13] = experiment: Antiproliferative activity against human NCI-H23 cells at 3 uM by SRB assay; type: functional
HCT-15 [14] = experiment: Antiproliferative activity against human HCT15 cells at 1 uM by SRB assay; type: functional
MDA-MB-231 [15] = experiment: Antiproliferative activity against human MDA-MB-231 cells at 3 uM by SRB assay; type: functional
ACHN [16] = experiment: Antiproliferative activity against human ACHN cells at 0.3 uM by SRB assay; type: functional
NCI-H23 [17] = experiment: Antiproliferative activity against human NCI-H23 cells at 1 uM by SRB assay; type: functional
[18] = biological target: Rho-related GTP-binding protein RhoB (Homo sapiens) (UniProt P62745); experiment: Inhibition of RhoB transactivation in human HeLa cells by luciferase reporter assay; type: cell-based
MDA-MB-231 [19] = experiment: Antiproliferative activity against human MDA-MB-231 cells at 0.1 uM by SRB assay; type: functional
NCI-H23 [20] = experiment: Antiproliferative activity against human NCI-H23 cells at 0.3 uM by SRB assay; type: functional
PC-3 [21] = experiment: Antiproliferative activity against human PC3 cells at 0.1 uM by SRB assay; type: functional
NUGC-3 [22] = experiment: Antiproliferative activity against human NUGC3 cells by SRB assay; type: functional
PC-3 [23] = experiment: Antiproliferative activity against human PC3 cells at 3 uM by SRB assay; type: functional
HCT-15 [24] = experiment: Antiproliferative activity against human HCT15 cells at 10 uM by SRB assay; type: functional
MDA-MB-231 [25] = experiment: Antiproliferative activity against human MDA-MB-231 cells by SRB assay; type: functional
ACHN [26] = experiment: Antiproliferative activity against human ACHN cells at 10 uM by SRB assay; type: functional
ACHN [27] = experiment: Antiproliferative activity against human ACHN cells by SRB assay; type: functional
MDA-MB-231 [28] = experiment: Antiproliferative activity against human MDA-MB-231 cells at 10 uM by SRB assay; type: functional
HCT-15 [29] = experiment: Antiproliferative activity against human HCT15 cells at 0.1 uM by SRB assay; type: functional
NUGC-3 [30] = experiment: Antiproliferative activity against human NUGC3 cells at 0.3 uM by SRB assay; type: functional
MDA-MB-231 [31] = experiment: Antiproliferative activity against human MDA-MB-231 cells at 1 uM by SRB assay; type: functional
PC-3 [32] = experiment: Antiproliferative activity against human PC3 cells at 1 uM by SRB assay; type: functional
NUGC-3 [33] = experiment: Antiproliferative activity against human NUGC3 cells at 10 uM by SRB assay; type: functional
PC-3 [34] = experiment: Antiproliferative activity against human PC3 cells at 10 uM by SRB assay; type: functional
PC-3 [35] = experiment: Antiproliferative activity against human PC3 cells at 0.3 uM by SRB assay; type: functional
PC-3 [36] = experiment: Antiproliferative activity against human PC3 cells by SRB assay; type: functional
NCI-H23 [37] = experiment: Antiproliferative activity against human NCI-H23 cells at 10 uM by SRB assay; type: functional
HCT-15 [38] = experiment: Antiproliferative activity against human HCT15 cells at 3 uM by SRB assay; type: functional

Structure (SMILES): CCCCCCCCCCCCCCCCCC(=O)N(C)CC[N+](C)(C)C
- growth, % of control at 0.1 µM (ACHN [1]): 81.8%
- growth, % of control at 3 µM (NUGC-3 [2]): 2.4%
- growth, % of control at 0.1 µM (NUGC-3 [3]): 77.9%
- growth, % of control at 1 µM (NUGC-3 [4]): 10.4%
- growth, % of control at 1 µM (ACHN [5]): 44.6%
- Activity [6]: Active
- growth, % of control at 0.1 µM (NCI-H23 [7]): 94.3%
- GI50 (HCT-15 [8]): 0.8 µM
- GI50 (NCI-H23 [9]): 1.52 µM
- growth, % of control at 0.3 µM (HCT-15 [10]): 98.6%
- growth, % of control at 3 µM (ACHN [11]): 23.4%
- growth, % of control at 0.3 µM (MDA-MB-231 [12]): 84.2%
- growth, % of control at 3 µM (NCI-H23 [13]): 51.6%
- growth, % of control at 1 µM (HCT-15 [14]): 61.4%
- growth, % of control at 3 µM (MDA-MB-231 [15]): 37%
- growth, % of control at 0.3 µM (ACHN [16]): 71.3%
- growth, % of control at 1 µM (NCI-H23 [17]): 84.4%
- inhibition [18]: Active
- growth, % of control at 0.1 µM (MDA-MB-231 [19]): 90.6%
- growth, % of control at 0.3 µM (NCI-H23 [20]): 90.2%
- growth, % of control at 0.1 µM (PC-3 [21]): 93.2%
- GI50 (NUGC-3 [22]): 0.14 µM
- growth, % of control at 3 µM (PC-3 [23]): 1.1%
- growth, % of control at 10 µM (HCT-15 [24]): 20.5%
- GI50 (MDA-MB-231 [25]): 1.07 µM
- growth, % of control at 10 µM (ACHN [26]): -15.6%
- GI50 (ACHN [27]): 0.36 µM
- growth, % of control at 10 µM (MDA-MB-231 [28]): 12.8%
- growth, % of control at 0.1 µM (HCT-15 [29]): 92.9%
- growth, % of control at 0.3 µM (NUGC-3 [30]): 49%
- growth, % of control at 1 µM (MDA-MB-231 [31]): 77.2%
- growth, % of control at 1 µM (PC-3 [32]): 39.3%
- growth, % of control at 10 µM (NUGC-3 [33]): -18.7%
- growth, % of control at 10 µM (PC-3 [34]): -11.6%
- growth, % of control at 0.3 µM (PC-3 [35]): 91.9%
- GI50 (PC-3 [36]): 0.42 µM
- growth, % of control at 10 µM (NCI-H23 [37]): 11.1%
- growth, % of control at 3 µM (HCT-15 [38]): 25.4%
